Assay results from US11279736B2, “Conformationally-preorganized, MiniPEG-containing gamma-peptide nucleic acids” (CARNEGIE MELLON UNIVERSITY, priority 2011, dated 2022).
Like-named read-outs stand apart in the source and are kept apart here. Marks after values point to notes of the source that are not given here. [RMPγPNA-N] = PNA unit with R-MP-gamma backbone modification (N: the base)

Tests used:
[1] = test system: complementary RNA strand; assay: UV-melting / van't Hoff analysis of PNA-RNA hybrid duplexes; format: binding
Procedure: (§1) FIGS. 2A-2B illustrate UV-melting profiles of PNA-DNA (FIG. 2A) and PNA-RNA (FIG. 2B) hybrid duplexes at a strand concentration of […] each in 10 mM sodium phosphate buffer at pH 7.4. While both the heating and cooling runs were performed because they both have nearly identical profiles UV-melting for only the heating runs are shown.
A similar pattern is observed for a R-MP-γPNA-RNA duplex, but the observed increase in thermal stability is lower for a R-MP-γPNA-RNA duplex as compared to a R-MP-γPNA-DNA duplex (FIG. 3B). The enhancement in thermal stability of a R-MP-γPNA-RNA duplex is only 3° C. for the first R-MP-γPNA-monomer that is incorporated into the PNA oligomer and this gain in thermal stability reduces to about 1.2° C. per R-MP-γPNA monomer for an oligomer made entirely R-MP-γPNA (PNA5). In contrast the gain in thermal stability is about 2.3° C./unit for R-MP-γPNA-DNA duplexes.
(§2) Further insights related to the contribution of miniPEG to the stability of the PNA-DNA duplex was obtained from van′t Hoff analysis. Data in Table 2 show the thermodynamic parameters associated with hybridization of PNA1 through 5 to a complementary DNA or RNA strand.

[2] = test system: complementary DNA strand; assay: UV-melting / van't Hoff analysis of PNA-DNA hybrid duplexes; format: binding; conditions: PNA-DNA duplex, 298 K; for Kd: UV melting; for −ΔG° / −ΔH° / −ΔTS°: averages of three trials
Procedure: as §1
UV-melting experiments were performed to determine the effect of MP on the thermal stability of PNA oligomers following hybridization to DNA or an RNA. FIG. 3A illustrates that the incorporation of a single miniPEG side-chain stabilized a PNA-DNA duplex by 4° C. […] However, increase in thermal stability tapers off to a value of about 2.3° C. per unit for the fully-modified oligomer, that is an oligomer made up of R-MP-γPNA groups only (e.g., PNA5).
as §2

[3] = test system: immobilized complementary DNA; assay: Surface plasmon resonance (SPR) hybridization kinetics; format: binding; conditions: for association rate constant ka / dissociation rate constant kd / Kd: SPR; for association rate constant ka / dissociation rate constant kd: 1:1 binding model; for dissociation rate constant kd: † values approach limits of detection
Procedure: FIG. 4 illustrates surface plamon resonance (SPR) sensorgrams (solid black lines) and fits (dotted lines) for hybridization of PNA probes to immobilized complementary DNA. Solutions contained 30 nM PNA. Error bars at t=420 sec illustrate standard deviations for three separate trials.
Surface plasmon resonance (SPR) analysis is used to study the hybridization kinetics of ^R-MPγPNA-DNA and ^R-MPγPNA-RNA duplexes. Briefly, SPR was performed as follows. According to one embodiment, the PNA probe was immobilized to the chip while the DNA target was captured from solution. In another embodiment, a biotinylated version of the DNA target is immobilized on a streptavidin-conjugated, carboxymethylated dextran chip at a relatively low surface density (ca. 100 response units) of DNA targets to limit mass transport effects on the association kinetics. Solutions containing 10-50 nM PNA oligomers are allowed to flow over the chip for about 420 seconds, at which point the flow is switched to a PNA-free buffer to allow net dissociation of the hybridized PNA.

[4] = Water solubility, saturated concentration by UV-spectroscopy; format: physicochemical; conditions: saturated solution in water
Procedure: To determine whether inclusion of miniPEG in the backbone of a Formula I PNA has an effect on water solubility of the resultant oligomer, saturating concentrations of PNA6 through 10 (Table 1) were prepared in water and the concentrations of each solution was measured by UV-spectroscopy. The incorporation of a single MP unit enhances the solubility of PNA6 by nearly 2-fold (Table 5). The solubility of the oligomers is further improved, albeit to a smaller extent, with additional MP units.

[5] = test system: DNA fragment, 171 bp in length (no complementary sequence); assay: Non-denaturing gel-shift assay for non-specific (off-target) binding
Procedure: FIG. 6 illustrates the results of a non-denaturing gel-shift assay that was aimed at evaluating the extent of non-specific binding for an unmodified PNA oligomer (PNA6) and a oligomer containing the inventive R-MP-γPNA monomer (PNA10).
To assess the extent of off-target binding of PNA and ^R-MPγPNA, a gel-shift assay is performed. In this case, a DNA fragment, 171 bp in length, is incubated with different concentrations of PNA6 and PNA10 (Table 1) in 10 mM sodium phosphate buffer at 37° C. for 16 hr. The two oligomers contain identical nucleobase sequence but differ from another at the γ-backbone. PNA6 is unmodified, whereas PNA10 is modified at every other position with R-MP-γ side-chain. Following incubation, the samples are separated on non-denaturing polyacrylamide gel and stained with SYBR-Gold.

[6] = test system: RNA: 3′-CGUACAXACU-5, X = A, C, G, U (SEQ ID NO: 12); conditions: PNA-RNA, cited from earlier work
[7] = test system: DNA: 3′-[…]-5, X = A, C, G, T (SEQ ID NO: 11); conditions: PNA-DNA, cited from earlier work
[8] = PNA-RNA duplex, 298 K, UV-melting curve fitting
[9] = ratio of dissociation and association rate constants, † values uncertain, read-out: equilibrium dissociation constant Kd
[10] = range over mismatches, earlier study

Substance	−ΔG° [1, 8] [kJ/mol]	−ΔH° [1, 8] [kJ/mol]	−ΔTS° [1, 8] [kJ/mol]	Kd [2] [nM]	−ΔG° [2] [kJ/mol]	−ΔH° [2] [kJ/mol]	−ΔTS° [2] [kJ/mol]	association rate constant ka [3] [M⁻¹ s⁻¹]	dissociation rate constant kd [3]	Kd [3, 9] [nM]	Sat. conc. [4] [mM]	further results
H-GCATGTTTGA-NH2 [PNA3] (PNA; 3 R-MP-gamma units; C-terminal amide; modified_base (4)..(4) R-MP-gamma-backbone modified nucleotide; modified_base (6)..(6) R-MP-gamma-backbone modified nucleotide; modified_base (8)..(8) R-MP-gamma-backbone modified nucleotide)	71	350	280	0.051	59 ± 1	316 ± 11	256 ± 11	620000	0.00019 s⁻¹	0.3		
H-GCATGTTTGA-NH2 [PNA4] (PNA; 5 R-MP-gamma units; C-terminal amide; modified_base (2)..(2) R-MP-gamma-backbone modified nucleotide; modified_base (4)..(4) R-MP-gamma-backbone modified nucleotide; modified_base (6)..(6) R-MP-gamma-backbone modified nucleotide; modified_base (8)..(8) R-MP-gamma-backbone modified nucleotide; modified_base (10)..(10) R-MP-gamma-backbone modified nucleotide)	73	356	283	0.0035	65 ± 1	329 ± 14	265 ± 12	660000	0.3 × 10^−4 ^† s^−1	0.041		SPR-derived Kd relative to Kd determined by UV melting experiments ([3]; Table 3 versus Table 2, DNA target): 12 fold
H-ACGGGTAGAATAACAT-NH2 [PNA6] (all peptide nucleic acid (PNA); PNA oligomer with free N-terminus and C-terminal amide)											39	intensity of the DNA band ([5]; 10 μM (PNA/DNA ratio of 25:1) or higher): completely disappeared; intensity of the DNA band ([5]; increasing concentrations of oligomer, 37° C., 16 hr): drastic reduction
H-GCATGTTTGA-NH2 [PNA1] (all peptide nucleic acid (PNA); C-terminal amide)	60	289	229	2.5	49 ± 1	273 ± 5	224 ± 5	470000	0.0013 s⁻¹			Kd [1, 8]: 0.035 nM; differential Tm (ΔTm), RNA versus DNA binding ([1]; duplex with RNA compared to duplex with DNA): 10 °C; Tm ([6]; C<>T mismatch): 37 °C; ΔTm between the perfect match and mismatch ([6]; C<>T mismatch): (−18) ° C.; Tm ([6]; G<>T mismatch): 44 °C; ΔTm between the perfect match and mismatch ([6]; G<>T mismatch): (−11) ° C.; Tm ([6]; T(U)<>T mismatch): 40 °C; ΔTm between the perfect match and mismatch ([6]; T(U)<>T mismatch): (−15) ° C.; Tm ([6]; X = A (A-T perfect match)): 55 °C; ΔTm, single-base mismatch (X=C, G, T) [6, 10]: −11 to −18 °C; Tm ([7]; C<>T mismatch): 31 °C; ΔTm between the perfect match and mismatch ([7]; C<>T mismatch): (−14)^† ° C.; Tm ([7]; G<>T mismatch): 31 °C; ΔTm between the perfect match and mismatch ([7]; G<>T mismatch): (−14) ° C.; Tm ([7]; T(U)<>T mismatch): 35 °C; ΔTm between the perfect match and mismatch ([7]; T(U)<>T mismatch): (−10) ° C.; Tm ([7]; X = A (A-T perfect match)): 45 °C; ΔTm, single-base mismatch (X=C, G, T) [7, 10]: −10 to −14 °C; Kd ([3]; read-out: Kd): 2.8 nM
H-ACGGGTAGAATAACAT-NH2 [PNA7] (PNA; 1 R-MP-gamma unit; C-terminal amide; modified_base (8)..(8) R-MP-gamma-backbone modified nucleotide)											76	
H-ACGGGTAGAATAACAT-NH2 [PNA8] (PNA; 3 R-MP-gamma units; C-terminal amide; modified_base (1)..(1) R-MP-gamma-backbone modified nucleotide; modified_base (8)..(8) R-MP-gamma-backbone modified nucleotide; modified_base (15)..(15) R-MP-gamma-backbone modified nucleotide)											108	
H-ACGGGTAGAATAACAT-NH2 [PNA10] (PNA; 8 R-MP-gamma units; C-terminal amide; modified_base (2)..(2) R-MP-gamma-backbone modified nucleotide; modified_base (4)..(4) R-MP-gamma-backbone modified nucleotide; modified_base (6)..(6) R-MP-gamma-backbone modified nucleotide; modified_base (8)..(8) R-MP-gamma-backbone modified nucleotide; modified_base (10)..(10) R-MP-gamma-backbone modified nucleotide; modified_base (12)..(12) R-MP-gamma-backbone modified nucleotide; modified_bas)											>500	intensity of the DNA bands ([5]; up to 20 μM (PNA/DNA ratio of 50:1)): remained fairly constant
H-GCATGTTTGA-NH2 (all [RMPγPNA-N], methylation of C not given here; C-terminal amide) [PNA5]										0.054		
H-ACGGGTAGAATAACAT-NH2 [PNA9] (PNA; 5 R-MP-gamma units; C-terminal amide; modified_base (3)..(3) R-MP-gamma-backbone modified nucleotide; modified_base (6)..(6) R-MP-gamma-backbone modified nucleotide; modified_base (9)..(9) R-MP-gamma-backbone modified nucleotide; modified_base (12)..(12) R-MP-gamma-backbone modified nucleotide; modified_base (15)..(15) R-MP-gamma-backbone modified nucleotide)											350	
